Results from ChEMBL document CHEMBL1157707, “Lead optimization of N-3-substituted 7-morpholinotriazolopyrimidines as dual phosphoinositide 3-kinase/mammalian target of rapamycin inhibitors: discovery of PKI-402” (J Med Chem, 2010).
≈ marks a conversion by molar mass, not a printed value.

Columns and labels:
[1] = target: Serine/threonine-protein kinase mTOR (Homo sapiens, UniProt P42345); test: Inhibition of mTOR by DELFIA
[2] = tested on: MDA-MB-361; test: cells; details: Homo sapiens, MDA-MB-361, 72 h
[3] = tested on: PC-3; test: cells; details: Homo sapiens, PC-3, 72 h
[4] = in vitro; details: rat
[5] = target: Phosphatidylinositol 4,5-bisphosphate 3-kinase catalytic subunit gamma isoform (Homo sapiens, UniProt P48736); test: Inhibition of human PI3Kgamma by fluorescence polarization format assay
[6] = Solubility at pH 7.4; format: physicochemical; details: buffer
[7] = Solubility at pH 3; format: physicochemical; details: buffer
[8] = Metabolic stability in human liver microsomes assessed as half life; format: ADME, Microsome
[9] = Metabolic stability in mouse liver microsomes assessed as half life; format: ADME, Microsome
[10] = target: Phosphatidylinositol 4,5-bisphosphate 3-kinase catalytic subunit alpha isoform (Homo sapiens, UniProt P42336)
[11] = cells; details: Homo sapiens, MDA-MB-361, 4 h

Sequence of Phosphatidylinositol 4,5-bisphosphate 3-kinase catalytic subunit alpha isoform (P42336 whole entry, canonical isoform): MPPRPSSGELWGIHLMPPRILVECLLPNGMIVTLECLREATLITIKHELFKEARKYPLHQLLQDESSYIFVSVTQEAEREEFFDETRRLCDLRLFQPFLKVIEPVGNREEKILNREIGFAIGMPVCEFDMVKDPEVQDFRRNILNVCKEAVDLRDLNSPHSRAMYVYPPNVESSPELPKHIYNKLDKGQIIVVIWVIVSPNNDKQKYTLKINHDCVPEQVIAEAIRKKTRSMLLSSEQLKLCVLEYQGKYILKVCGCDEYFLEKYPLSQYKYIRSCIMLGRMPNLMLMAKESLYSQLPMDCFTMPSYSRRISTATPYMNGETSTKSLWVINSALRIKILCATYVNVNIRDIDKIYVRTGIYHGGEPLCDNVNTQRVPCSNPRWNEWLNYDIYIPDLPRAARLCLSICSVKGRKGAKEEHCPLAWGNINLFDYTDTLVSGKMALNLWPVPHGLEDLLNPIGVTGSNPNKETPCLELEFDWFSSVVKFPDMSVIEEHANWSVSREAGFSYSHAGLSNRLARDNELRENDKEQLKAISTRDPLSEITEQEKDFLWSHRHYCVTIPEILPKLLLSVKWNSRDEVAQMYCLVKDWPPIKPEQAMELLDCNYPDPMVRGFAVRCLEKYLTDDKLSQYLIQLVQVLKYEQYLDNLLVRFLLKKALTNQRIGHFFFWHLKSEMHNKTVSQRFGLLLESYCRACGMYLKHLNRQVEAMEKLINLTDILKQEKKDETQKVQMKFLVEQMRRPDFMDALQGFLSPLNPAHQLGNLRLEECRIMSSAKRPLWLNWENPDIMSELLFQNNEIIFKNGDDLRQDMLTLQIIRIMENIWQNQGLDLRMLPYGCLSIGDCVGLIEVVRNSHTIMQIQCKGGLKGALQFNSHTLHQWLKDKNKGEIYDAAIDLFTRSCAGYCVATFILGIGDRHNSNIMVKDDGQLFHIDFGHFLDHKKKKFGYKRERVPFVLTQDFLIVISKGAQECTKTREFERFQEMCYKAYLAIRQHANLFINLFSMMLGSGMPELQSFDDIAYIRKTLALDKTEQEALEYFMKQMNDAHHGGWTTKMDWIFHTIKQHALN
Sequence of Phosphatidylinositol 4,5-bisphosphate 3-kinase catalytic subunit gamma isoform (P48736 whole entry, canonical isoform): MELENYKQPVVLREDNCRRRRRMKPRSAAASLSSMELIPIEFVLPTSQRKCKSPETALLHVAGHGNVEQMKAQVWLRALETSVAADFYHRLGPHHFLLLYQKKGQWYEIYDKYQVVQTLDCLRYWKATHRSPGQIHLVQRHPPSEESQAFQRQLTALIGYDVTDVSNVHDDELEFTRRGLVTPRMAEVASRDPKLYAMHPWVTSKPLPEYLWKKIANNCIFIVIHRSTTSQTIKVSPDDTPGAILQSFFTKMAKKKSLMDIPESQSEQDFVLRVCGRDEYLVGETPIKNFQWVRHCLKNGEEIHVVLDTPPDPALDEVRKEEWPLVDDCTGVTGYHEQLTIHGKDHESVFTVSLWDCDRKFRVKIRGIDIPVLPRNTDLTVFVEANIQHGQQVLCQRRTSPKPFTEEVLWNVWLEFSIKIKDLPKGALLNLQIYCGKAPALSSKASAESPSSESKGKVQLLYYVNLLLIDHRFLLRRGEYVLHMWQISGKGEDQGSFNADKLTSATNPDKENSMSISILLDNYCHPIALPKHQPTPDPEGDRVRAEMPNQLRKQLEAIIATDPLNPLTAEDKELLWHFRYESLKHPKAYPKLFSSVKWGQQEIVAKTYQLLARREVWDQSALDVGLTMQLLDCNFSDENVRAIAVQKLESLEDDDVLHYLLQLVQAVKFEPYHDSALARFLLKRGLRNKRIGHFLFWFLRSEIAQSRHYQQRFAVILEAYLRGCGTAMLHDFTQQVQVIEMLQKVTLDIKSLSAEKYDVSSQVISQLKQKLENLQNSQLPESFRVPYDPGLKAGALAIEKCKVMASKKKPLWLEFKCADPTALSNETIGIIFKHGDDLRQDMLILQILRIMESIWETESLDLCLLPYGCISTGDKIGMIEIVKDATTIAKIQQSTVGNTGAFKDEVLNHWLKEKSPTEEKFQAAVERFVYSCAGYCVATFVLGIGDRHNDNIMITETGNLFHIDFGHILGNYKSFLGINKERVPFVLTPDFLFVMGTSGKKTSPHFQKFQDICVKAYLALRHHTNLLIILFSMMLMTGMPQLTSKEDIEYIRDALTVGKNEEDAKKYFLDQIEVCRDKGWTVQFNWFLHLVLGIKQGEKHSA

O=C(Nc1ccncc1)Nc1ccc(-c2nc(N3CCOCC3)c3nnn(C4CC4)c3n2)cc1
IC50 [1]: 0.84 nM | IC50 [2]: 31 nM | IC50 [3]: 70 nM | half-life ([4]; liver microsomes): 21 min

CCn1nnc2c(N3CCOCC3)nc(-c3ccc(NC(=O)Nc4ccc(C(=O)OC)cc4)cc3)nc21
IC50 [1]: 2.55 nM | IC50 [2]: 199 nM | IC50 [3]: 285 nM | half-life ([4]; liver microsomes): 15 min

CCn1nnc2c(N3CCOCC3)nc(-c3ccc(NC(=O)Nc4ccc(C(=O)NCCc5ccccn5)cc4)cc3)nc21
IC50 [5]: 22 nM | IC50 [1]: 1.21 nM | solubility [6]: 1 µg/mL (≈ 1.69 µM) | solubility [7]: 4 µg/mL (≈ 6.75 µM) | half-life [8]: 16 min | half-life [9]: 19 min | IC50 [10]: 6.8 nM | IC50 [2]: 36 nM | IC50 [3]: 88 nM | IC50 [11]: 65 nM | half-life ([4]; liver microsomes): 23 min

CC(C)n1nnc2c(N3CCOCC3)nc(-c3ccc(NC(=O)Nc4ccc(N(C)C)cc4)cc3)nc21
IC50 [1]: 1.6 nM | IC50 [2]: 84 nM | IC50 [3]: 171 nM | half-life ([4]; liver microsomes): 7 min

CCn1nnc2c(N3CCOCC3)nc(-c3ccc(NC(=O)Nc4ccc(C(=O)NCCN5CCN(C)CC5)cc4)cc3)nc21
IC50 [1]: 1.1 nM | solubility [6]: 1 µg/mL (≈ 1.63 µM) | solubility [7]: 100 µg/mL (≈ 163 µM) | half-life [9]: 28 min | IC50 [10]: 3.2 nM | IC50 [2]: 24 nM | IC50 [3]: 67 nM | IC50 [11]: 74 nM | half-life ([4]; liver microsomes): 17 min

CCNC(=O)c1ccc(NC(=O)Nc2ccc(-c3nc(N4CCOCC4)c4nnn(CC)c4n3)cc2)cc1
IC50 [5]: 17.2 nM | IC50 [1]: 0.56 nM | solubility [6]: 1 µg/mL (≈ 1.94 µM) | half-life [8]: > 30 min | half-life [9]: 29 min | IC50 [10]: 3 nM | IC50 [2]: 29 nM | IC50 [3]: 33 nM | IC50 [11]: 27 nM | half-life ([4]; microsomes): 16 min

CC(C)n1nnc2c(N3CCOCC3)nc(-c3ccc(NC(=O)Nc4cccnc4)cc3)nc21
IC50 [1]: 0.57 nM | solubility [6]: 1 µg/mL (≈ 2.18 µM) | IC50 [2]: 39 nM | IC50 [3]: 91 nM | half-life ([4]; liver microsomes): 24 min

Cn1nnc2c(N3CCOCC3)nc(-c3ccc(NC(=O)Nc4cccs4)cc3)nc21
IC50 [1]: 3.7 nM | solubility [6]: 2 µg/mL (≈ 4.58 µM) | IC50 [2]: 184 nM | IC50 [3]: 366 nM | half-life ([4]; liver microsomes): 9 min

CCn1nnc2c(N3CCOCC3)nc(-c3ccc(NC(=O)Nc4ccc(C(=O)N(C)C)cc4)cc3)nc21
IC50 [1]: 0.75 nM | solubility [6]: 1 µg/mL (≈ 1.94 µM) | half-life [8]: > 30 min | IC50 [10]: 1.4 nM | IC50 [2]: 16 nM | IC50 [3]: 17 nM | IC50 [11]: 8 nM | half-life ([4]; liver microsomes): 14 min

O=C(Nc1ccc(-c2nc(N3CCOCC3)c3nnn(C4CC4)c3n2)cc1)Nc1cccnc1
IC50 [5]: 48.5 nM | IC50 [1]: 0.57 nM | solubility [6]: 1 µg/mL (≈ 2.19 µM) | IC50 [10]: 10.5 nM | IC50 [2]: 67 nM | IC50 [3]: 90 nM | half-life ([4]; liver microsomes): 24 min

CCn1nnc2c(N3CCOCC3)nc(-c3ccc(NC(=O)Nc4cccnc4)cc3)nc21
IC50 [1]: 0.89 nM

CCn1nnc2c(N3CCOCC3)nc(-c3ccc(NC(=O)Nc4ccc(C(N)=O)cc4)cc3)nc21
IC50 [5]: 12.2 nM | IC50 [1]: 0.39 nM | solubility [6]: 6 µg/mL (≈ 12.3 µM) | IC50 [10]: 2.4 nM | IC50 [2]: 28 nM | IC50 [3]: 65 nM | half-life ([4]; microsomes): 21 min

OCc1cccc(-c2nc(N3CCOCC3)c3ncn(C4CCN(Cc5ccccc5)CC4)c3n2)c1
IC50 [1]: 634 nM
